Measured values as given in patent publication US10821115B2, “Compounds that inhibit Mcl-1 protein” (priority 2017, dated 2020).
pIC50: −log10 of the molar value.

What was measured:
[1] = tested on: human multiple myeloma cell line, OPM-2; assay: Cell viability assay (OPM-2 10 FBS), CellTiter-Glo; assay type: cell-based; conditions: Homo sapiens, OPM-2, 16 h, read-out: OPM-2 10% FBS IC50 IP, OPM-2 cells, 10% FBS, 16 h incubation
How it was run: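 IC50 values come from 4-parameter logistic fits of luminescence signals reflecting cell viability. Treatment lasted 16 h at 37 °C in complete medium with 10% FBS, starting from 3000 cells/well.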

[2] = biological target: recombinant human Mcl-1 (residues 171-327) / Bim interaction (Homo sapiens (Human), UniProt Q07820); assay: biochemical; assay type: binding; conditions: 0.1 nM Mcl-1(171-327), 0.05 nM biotin-Bim (51-76); read-out: Mcl-1 HTRF IC50
Sequence of recombinant human Mcl-1 (residues 171-327) / Bim interaction (Q07820 171-327): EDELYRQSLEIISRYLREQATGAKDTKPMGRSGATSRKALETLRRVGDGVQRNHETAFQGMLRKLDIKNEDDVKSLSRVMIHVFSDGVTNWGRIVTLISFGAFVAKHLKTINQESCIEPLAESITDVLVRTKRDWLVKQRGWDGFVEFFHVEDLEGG

Structure (SMILES) | pIC50 [1] | pIC50 [2]
CO[C@@]1(CN2CCN(CCO)CC2)/C=C/C[C@H](C)[C@@H](C)S(=O)(=O)NC(=O)c2ccc3c(c2)N(C[C@@H]2CC[C@H]21)C[C@@]1(CCCc2cc(Cl)ccc21)CO3 [Example 300, (1S,3′R,6′R,7′S,8′E,11′S,12′R)-6-chloro-7′-((4-(2-hydroxyethyl)-1-piperazinyl)methyl)-7′-methoxy-11′,12′-dimethyl-3,4-dihydro-2H,15′H-spiro[naphthalene-1,22′-[20]oxa[13]thia[1,14]diazatetracyclo [14.7.2.0~3,6~.0~19,24~]pentacosa[8,16,18,24]tetraen]-15′-one 13′,13′-dioxide] | 6.55 | 9.78
CCCCN1CCN(C[C@]2(OC)/C=C/C[C@H](C)[C@@H](C)S(=O)(=O)NC(=O)c3ccc4c(c3)N(C[C@@H]3CC[C@H]32)C[C@@]2(CCCc3cc(Cl)ccc32)CO4)CC1 [Example 301, (1S,3′R,6′R,7′S,8′E,11′S,12′R)-7′-((4-butyl-1-piperazinyl)methyl)-6-chloro-7′-methoxy-11′,12′-dimethyl-3,4-dihydro-2H,15′H-spiro[naphthalene-1,22′-[20]oxa[13]thia[1,14]diazatetracyclo [14.7.2.0~3,6~.0~19,24~]pentacosa[8,16,18,24]tetraen]-15′-one 13′,13′-dioxide] | 6.85 | 9.71
COCCCN1CCN(C[C@]2(OC)/C=C/C[C@H](C)[C@@H](C)S(=O)(=O)NC(=O)c3ccc4c(c3)N(C[C@@H]3CC[C@H]32)C[C@@]2(CCCc3cc(Cl)ccc32)CO4)CC1 [Example 302, (1S,3′R,6′R,7′S,8′E,11′S,12′R)-6-chloro-7′-methoxy-7′-((4-(3-methoxypropyl)-1-piperazinyl)methyl)-11′,12′-dimethyl-3,4-dihydro-2H,15′H-spiro[naphthalene-1,22′-[20]oxa[13]thia[1,14]diazatetracyclo [14.7.2.0~3,6~.0~19,24~]pentacosa[8,16,18,24]tetraen]-15′-one 13′,13′-dioxide] | 7.08 | 9.97
CCOCCN1CCN(C[C@]2(OC)/C=C/C[C@H](C)[C@@H](C)S(=O)(=O)NC(=O)c3ccc4c(c3)N(C[C@@H]3CC[C@H]32)C[C@@]2(CCCc3cc(Cl)ccc32)CO4)CC1 [Example 303, (1S,3′R,6′R,7′S,8′E,11′S,12′R)-6-chloro-7′-((4-(2-ethoxyethyl)-1-piperazinyl)methyl)-7′-methoxy-11′,12′-dimethyl-3,4-dihydro-2H,15′H-spiro[naphthalene-1,22′-[20]oxa[13]thia[1,14]diazatetracyclo [14.7.2.0~3,6~.0~19,24~]pentacosa[8,16,18,24]tetraen]-15′-one 13′,13′-dioxide] | 7.00 | 9.82
COCC(COC)N1CCN(C[C@@]2(OC)/C=C/C[C@H](C)[C@@H](C)S(=O)(=O)NC(=O)c3ccc4c(c3)N(C[C@@H]3CC[C@H]32)C[C@@]2(CCCc3cc(Cl)ccc32)CO4)CC1 [Example 304, (1S,3′R,6′R,7′R,8′E,11′S,12′R)-6-chloro-7′-methoxy-7′-((4-(2-methoxy-1-(methoxymethyl)ethyl)-1-piperazinyl)methyl)-11′,12′-dimethyl-3,4-dihydro-2H,15′H-spiro[naphthalene-1,22′-[20]oxa[13]thia[1,14]diazatetracyclo [14.7.2.0~3,6~.0~19,24~]pentacosa[8,16,18,24]tetraen]-15′-one 13′,13′-dioxide] | 6.62 | 9.65
CO[C@@]1(CN2CCN(c3cncnc3)CC2)/C=C/C[C@H](C)[C@@H](C)S(=O)(=O)NC(=O)c2ccc3c(c2)N(C[C@@H]2CC[C@H]21)C[C@@]1(CCCc2cc(Cl)ccc21)CO3 [Example 305, (1S,3′R,6′R,7′S,8′E,11′S,12′R)-6-chloro-7′-methoxy-11′,12′-dimethyl-7′-((4-(5-pyrimidinyl)-1-piperazinyl)methyl)-3,4-dihydro-2H,15′H-spiro[naphthalene-1,22′-[20]oxa[13]thia[1,14]diazatetracyclo [14.7.2.0~3,6~.0~19,24~]pentacosa[8,16,18,24]tetraen]-15′-one 13′,13′-dioxide] | 6.49 | 9.48
CO[C@@]1(CN2CCN(CC(F)F)CC2)/C=C/C[C@H](C)[C@@H](C)S(=O)(=O)NC(=O)c2ccc3c(c2)N(C[C@@H]2CC[C@H]21)C[C@@]1(CCCc2cc(Cl)ccc21)CO3 [Example 306, (1S,3′R,6′R,7′S,8′E,11′S,12′R)-6-chloro-7′-((4-(2,2-difluoroethyl)-1-piperazinyl)methyl)-7′-methoxy-11′,12′-dimethyl-3,4-dihydro-2H,15′H-spiro[naphthalene-1,22′-[20]oxa[13]thia[1,14]diazatetracyclo [14.7.2.0~3,6~.0~19,24~]pentacosa[8,16,18,24]tetraen]-15′-one 13′,13′-dioxide] | 6.61 | 9.55
CO[C@]1(CN2CCN(C(C)(C)C)CC2)/C=C/C[C@H](C)[C@@H](C)S(=O)(=O)NC(=O)c2ccc3c(c2)N(C[C@@H]2CC[C@H]21)C[C@@]1(CCCc2cc(Cl)ccc21)CO3 [Example 307, (1S,3′R,6′R,7′R,8′E,11′S,12′R)-7′-((4-tert-butyl-1-piperazinyl)methyl)-6-chloro-7′-methoxy-11′,12′-dimethyl-3,4-dihydro-2H,15′H-spiro[naphthalene-1,22′-[20]oxa[13]thia[1,14]diazatetracyclo [14.7.2.0~3,6~.0~19,24~]pentacosa[8,16,18,24]tetraen]-15′-one 13′,13′-dioxide] | 7.39 | 10.06
CO[C@@]1(CN2CCN(CC3OCCO3)CC2)/C=C/C[C@H](C)[C@@H](C)S(=O)(=O)NC(=O)c2ccc3c(c2)N(C[C@@H]2CC[C@H]21)C[C@@]1(CCCc2cc(Cl)ccc21)CO3 [Example 309, (1S,3′R,6′R,7′S,8′E,11′S,12′R)-6-chloro-7′-((4-(1,3-dioxolan-2-ylmethyl)-1-piperazinyl)methyl)-7′-methoxy-11′,12′-dimethyl-3,4-dihydro-2H,15′H-spiro[naphthalene-1,22′-[20]oxa[13]thia[1,14]diazatetracyclo [14.7.2.0~3,6~.0~19,24~]pentacosa[8,16,18,24]tetraen]-15′-one 13′,13′-dioxide] | 7.19 | 9.67
CO[C@@]1(CN2CCN(CC3COC3)CC2)/C=C/C[C@H](C)[C@@H](C)S(=O)(=O)NC(=O)c2ccc3c(c2)N(C[C@@H]2CC[C@H]21)C[C@@]1(CCCc2cc(Cl)ccc21)CO3 [Example 313, (1S,3′R,6′R,7′S,8′E,11′S,12′R)-6-chloro-7′-methoxy-11′,12′-dimethyl-7′-((4-(3-oxetanylmethyl)-1-piperazinyl)methyl)-3,4-dihydro-2H,15′H-spiro[naphthalene-1,22′-[20]oxa[13]thia[1,14]diazatetracyclo [14.7.2.0~3,6~.0~19,24~]pentacosa[8,16,18,24]tetraen]-15′-one 13′,13′-dioxide] | 6.88 | 9.65
CO[C@]1(CN2C[C@H]3C[C@@H]2CN3C(C)C)/C=C/C[C@H](C)[C@@H](C)S(=O)(=O)NC(=O)c2ccc3c(c2)N(C[C@@H]2CC[C@H]21)C[C@@]1(CCCc2cc(Cl)ccc21)CO3 [Example 314, (1S,3′R,6′R,7′R,8′E,11′S,12′R)-6-chloro-7′-methoxy-11′,12′-dimethyl-7′-(((1R,4R)-5-(1-methylethyl)-2,5-diazabicyclo[2.2.1]hept-2-yl)methyl)-3,4-dihydro-2H,15′H-spiro[naphthalene-1,22′-[20]oxa[13]thia[1,14]diazatetracyclo [14.7.2.0~3,6~.0~19,24~]pentacosa[8,16,18,24]tetraen]-15′-one 13′,13′-dioxide] | 6.90 | 9.93
CO[C@]1(CN2C[C@@H]3C[C@H]2CN3C(C)C)/C=C/C[C@H](C)[C@@H](C)S(=O)(=O)NC(=O)c2ccc3c(c2)N(C[C@@H]2CC[C@H]21)C[C@@]1(CCCc2cc(Cl)ccc21)CO3 [Example 315, (1S,3′R,6′R,7′R,8′E,11′S,12′R)-6-chloro-7′-methoxy-11′,12′-dimethyl-7′-(((1S,4S)-5-(1-methylethyl)-2,5-diazabicyclo[2.2.1]hept-2-yl)methyl)-3,4-dihydro-2H,15′H-spiro[naphthalene-1,22′-[20]oxa[13]thia[1,14]diazatetracyclo [14.7.2.0~3,6~.0~19,24~]pentacosa[8,16,18,24]tetraen]-15′-one 13′,13′-dioxide] | 6.91 | 9.91
CO[C@@]1(CN2CCN(Cc3noc(C)n3)CC2)/C=C/C[C@H](C)[C@@H](C)S(=O)(=O)NC(=O)c2ccc3c(c2)N(C[C@@H]2CC[C@H]21)C[C@@]1(CCCc2cc(Cl)ccc21)CO3 [Example 316, (1S,3′R,6′R,7′S,8′E,11′S,12′R)-6-chloro-7′-methoxy-11′,12′-dimethyl-7′-((4-((5-methyl-1,2,4-oxadiazol-3-yl)methyl)-1-piperazinyl)methyl)-3,4-dihydro-2H,15′H-spiro[naphthalene-1,22′-[20]oxa[13]thia[1,14]diazatetracyclo [14.7.2.0~3,6~.0~19,24~]pentacosa[8,16,18,24]tetraen]-15′-one 13′,13′-dioxide] | 7.33 | 9.78
CO[C@@]1(CN2CCN(Cc3nc(C)no3)CC2)/C=C/C[C@H](C)[C@@H](C)S(=O)(=O)NC(=O)c2ccc3c(c2)N(C[C@@H]2CC[C@H]21)C[C@@]1(CCCc2cc(Cl)ccc21)CO3 [Example 317, (1S,3′R,6′R,7′S,8′E,11′S,12′R)-6-chloro-7′-methoxy-11′,12′-dimethyl-7′-((4-((3-methyl-1,2,4-oxadiazol-5-yl)methyl)-1-piperazinyl)methyl)-3,4-dihydro-2H,15′H-spiro[naphthalene-1,22′-[20]oxa[13]thia[1,14]diazatetracyclo [14.7.2.0~3,6~.0~19,24~]pentacosa[8,16,18,24]tetraen]-15′-one 13′,13′-dioxide] | 7.06 | 9.73
